Assay results: article PMC8121762, “Peptidomics of enteroendocrine cells and characterisation of potential effects of a novel preprogastrin derived-peptide on glucose tolerance in lean mice” (Peptides, 2021)
Like-named read-outs stand apart in the source and are kept apart here. Where a SMILES comes first, the peptide text is derived from it. [ ]: non-standard residue; d: D form. pGlu = O=C1CC[C@@H](C(=O)O)N1

Tests used:
[1] = Pharmacokinetics studies in mice (i.v. and s.c. bolus, plasma LC–MS/MS); type: in vivo; details: mouse; for AUC: tail vein blood over 90 min
Procedure: Male and female mice aged between 12–18 weeks old were used for these studies. Gast p59−79, ChgA 435−462a and Sst 25−36 were administered intravenously (i.v.) at 1 mg/kg and subcutaneously (s.c.) at various doses (see Fig. 7A, B and C for details on specific doses for each peptide). Blood samples were collected using EDTA coated microvette tubes (Starsedt, Leicester, UK) from the tail vein at various time points over 90 min. Blood was centrifuged (2000 g, 10 min, 4 °C) and the plasma separated. A 0.1 M sodium citrate (Sigma-Aldrich) buffer (adjusted to pH 3 with citric acid (Sigma-Aldrich)) was added to the plasma at a dilution of 1 in 10 to prevent degradation of Gast p59−79 and Sst 25−36. Plasma was stored -70 °C till extraction.
On the day of analysis, plasma samples were thawed, spiked with a stable isotope labelled version of Gast p59−79, ChgA 435−462a or Sst 25−36, and crashed with 200 μL 80 % ACN. After centrifuging, supernatants were removed and dried under gaseous nitrogen at 40 °C using a SPE Dry evaporator system (Biotage, Upsalla, Sweden). SPE was performed as described previously.
A Xevo TQ-XS triple quadrupole mass spectrometer coupled to H-class Aquity UPLC system enabled high throughput and targeted sample analysis. The column used was a Waters HSS T3 2.1 × 50 mm column at 60 °C and flowing at 350 μL/min. LC–MS/MS analysis was performed using positive ESI with a spray voltage of 3 kV, desolvation temperature 600°C, gas flow rate 1000 L/h and cone voltage of 40 V. Solvent A was 0.1 % FA in water (v/v) and Solvent B was 0.1 % FA in ACN (v/v). Each sample (40 μL per sample) was injected onto the column for 30 s with starting conditions set at 90 % A and 10 % B before the % B was increased to 50 % over the course of 3.5 min. The column was flushed with 90 % B for 1.5 min before initial conditions were restored. Total run time per sample was 5.5 min. Table 1 details the specifications used to quantify Gast p59−79, ChgA 435−462a, Sst 25−36 and their stable isotope labelled versions on a Xevo TQ-XS mass spectrometer.
Raw data files obtained on the Xevo TQ-XS triple quadrupole mass spectrometer were analysed using TargetLynx XS v4.2 software (Waters). Peptides were quantified by integrating the corresponding peaks and normalised to an internal standard if available. For pharmacokinetics studies, the concentration of peptide was estimated by comparing against a calibration line. SAAM II v2.2.1 (The Epsilon Group) with a Rosenbrock integrator and no maximum number of iterations was used to create a model for Gast p59−79 distribution and elimination upon single dose administration to mice.

[2] = tested on: phosphorylated-AKT (pAKT); assay: Post-mortem assessment of insulin sensitivity (pAKT / total-AKT, MSD kits); type: in vivo, mouse; details: DIO mice, 28 days after pump surgery, 15 min after 0.75 U/kg insulin challenge; treatment vs vehicle
Procedure: At the end of the 3rd osmotic pump study, mice were given a 0.75 U/kg insulin challenge and culled after 15 min. The liver, white adipose tissue (WAT) and skeletal muscle were dissected out and snap frozen in liquid nitrogen and stored at −70 °C until analysis.
50−100 mg pieces of WAT, liver and skeletal muscle were homogenised in MSD (Rockville, MD, USA) lysis buffer with various protease inhibitors supplied by MSD and Qiagen metal bead. Homogenised tissue was allowed to rest at 4 °C for 2 h to allow protein solubilisation and then centrifuged (10 000 g, 10 min, 4 °C). Supernatants were aspirated and stored at -70 °C till analysis. Protein content of all homogenised tissue samples was assessed using a Pierce BCA protein assay kit (Thermo Fisher Scientific) according to the manufacturer’s instructions.
Tissue homogenates were diluted in MSD lysis buffer to the same protein content. Total and phosphorylated-AKT (pAKT) were quantified using respective kits from MSD (total-AKT kit catalogue number: K150MOD-1, pAKT (Ser473) kit catalogue number: K151CAD-1) according to the manufacturer’s instructions.
Fig. 8 Phosphorylated-AKT (pAKT) expressed as a percentage of total AKT in liver (A), skeletal muscle (B) and white adipose tissue (WAT) (C) 15 min after a 0.75 U/kg insulin challenge. (D) Body weights vs pAKT as a percentage of total-AKT. […]

[3] = tested on: mice; assay: Osmotic pump study 2: 7-day infusion, IP GTT; type: in vivo, mouse; details: osmotic pump 7 days, 2 g/kg IP GTT on day 7, n = 8/group, vs vehicle, T test
Procedure: Three studies were performed to assess the in vivo efficacy of the ChgA 435−462a and Gast p59−79 (see Figure legends for specifics of each study). Peptides were administered by osmotic pumps implanted subcutaneously under isoflurane anaesthesia. Food intake was assessed using BioDaq (Research Diets) automated food intake cages. Intraperitoneal (IP) glucose tolerance tests (GTT) were performed by administering a 2 g/kg challenge of glucose and measuring blood glucose levels from the tail vein whereas oral GTT (OGTT) were performed using 1 g/kg glucose challenge. Insulin tolerance tests (ITT) were performed by administering a 0.75 U/kg dose of insulin IP to the mice and assessing blood glucose levels at 15, 30, 45, 60, 90 and 120 min post-insulin challenge.
Fig. 7 In vivo characterisation of novel peptides. (A-C) PK data of ChgA 435-462a, Gast p59-79, Sst 25-36. (D-G) Data from 1st osmotic pump study where n = 5/group. […] Body weights (E) and food intake (D) were measured throughout the study. Week 0 and day -7 represent baseline data prior to treatment onset. Glucose tolerance was assessed every 7 days after surgery via an IP GTT using a 2 g/kg glucose challenge. Results from IP GTT on day 28 shown in (F, G). Statistical analysis performed using Kruskal-Wallis test with post-hoc Dunn tests. (H, I) Results from osmotic pump study 2 where n = 8/group. […]

Structure (SMILES): CC[C@H](C)[C@H](NC(=O)[C@H](Cc1ccccc1)NC(=O)[C@H](Cc1c[nH]cn1)NC(=O)[C@H](CCC(N)=O)NC(=O)[C@@H]1CCCN1C(=O)CNC(=O)[C@H](CCC(N)=O)NC(=O)[C@@H]1CCCN1C(=O)CNC(=O)[C@H](CC(C)C)NC(=O)[C@@H]1CCC(=O)N1)C(=O)N[C@@H](C)C(=O)N[C@@H](CC(=O)O)C(=O)N[C@@H](CC(C)C)C(=O)N[C@@H](CO)C(=O)N[C@@H](CCCCN)C(=O)N[C@@H](CCCCN)C(=O)N[C@@H](CCC(N)=O)C(=O)N[C@@H](CCCNC(=N)N)C(=O)N1CCC[C@H]1C(=O)N[C@@H](CCCNC(=N)N)C(=O)O [Gast p59−79] ([pGlu]LGPQGPQHFIADLSKKQRPR-OH; C-terminus assumed)
- AUC ([1]; both sexes, C57BL/6 N J, iv, 1 mg/kg, plasma LC–MS/MS): 503 ng·h/mL
- Clearance ([1]; both sexes, C57BL/6 N J, plasma, iv, i.v., 1 mg/kg, read-out: Clearance (converted)): 0.332
- AUC ([1]; both sexes, C57BL/6 N J, sc, 10 mg/kg, plasma LC–MS/MS): 558 ng·h/mL
- half-life ([1]; both sexes, C57BL/6 N J, sc, administered subcutaneously, plasma LC–MS/MS): 18.1 min
- mass delivery rate required to obtain steady state concentration of 1 nM ([1]; estimated from PK data (SAAM II model), osmotic pump infusion): 0.77 mg/kg/day
- Clearance ([1]; s.c., 10 mg/kg): 0.298 mL/min/kg
- Bioavailability (%) ([1]; s.c., 10 mg/kg, plasma LC–MS/MS): 110%
- bioavailability when administered subcutaneously (in words) ([1]; s.c., text summary of table S1): good bioavailability
- percentage of pAKT (of total AKT) in liver, WAT and skeletal muscle [2]: No effect
- glucose tolerance in IP GTT, second mouse cohort [3]: modestly improves glucose tolerance
